Data: patent publication US10744117B2, “PPARG modulators for the treatment of osteoporosis” (The Scripps Research Institute, priority 2014, dated 2020)
“Also recorded” adds a separate entry of the source.

Tests used:
PPARG = assay: Cell-based transactivation assay, 3xPPRE-luciferase reporter co-transfected with PPARG in COS-1 cells; details: PPRE-luciferase
DIO C57BL/6 mice = assay: Bone and marrow fat study in diet induced obesity (DIO) C57BL/6 mice on HFD, 4 wks; assay type: in vivo, mouse; details: 25 mg/kg/d
Procedure: The compound IA-48 (SR10171) acts as an antagonist to PPARy pro-adipocytic activity, and it has been further tested in vivo for its effect on bone. SR10171 was administered to hyperglycemic C57BL/6 mice, 12 wks old males, that were purchased from the Jackson Laboratories (Bar Harbor, Me.). DIO mice: Animals were fed ad libitum for 11 wks high fat diet (HFD) providing 45 kcal % from fat (D12451; Research Diets, New Brunswick, N.J.) to develop diet induced obesity (DIO).
In parallel, a group of sex- and age-matched control (n=5) was fed regular diet (RD) providing 12 kcal % from fat (2016 Teklad Global, Harlan Laboratories, Indianapolis, Ind.). […]
Fat and lean mass were evaluated at the beginning and at the end of experiment using a Minispec mq10 NMR analyzer (Bruker, Billerica, Mass.). Glucose disposal (glucose tolerance test, GTT) was measured after ip injection of 2 g/kg glucose to animals fasted for 4 hrs. Blood glucose was measured using the AlphaTRAK system appropriate for mice (Abbott Laboratories, North Chicago, Ill.). For indirect calorimetry, mice were evaluated in metabolic cages (CLAMS; Columbus Instruments, Columbus, Ohio) for 4 days with a free access to food and water. […] After one day adaptation, oxygen (VO2) consumption, carbon dioxide (VCO2) production, physical activity, and heat production were measured to determine energy expenditure. […]

lean C57BL/6 mice = assay: Bone study in lean C57BL/6 mice on regular diet, 8 weeks; assay type: in vivo, mouse; details: supplemented RD
Procedure: In parallel, a group of sex- and age-matched control (n=5) was fed regular diet (RD) providing 12 kcal % from fat (2016 Teklad Global, Harlan Laboratories, Indianapolis, Ind.). […] The animal treatment and care protocols conformed to the NIH Guidelines and were performed under the University of Toledo Health Science Campus Institutional Animal Care and Utilization Committee protocol.
Fat and lean mass were evaluated at the beginning and at the end of experiment using a Minispec mq10 NMR analyzer (Bruker, Billerica, Mass.). Glucose disposal (glucose tolerance test, GTT) was measured after ip injection of 2 g/kg glucose to animals fasted for 4 hrs. Blood glucose was measured using the AlphaTRAK system appropriate for mice (Abbott Laboratories, North Chicago, Ill.). For indirect calorimetry, mice were evaluated in metabolic cages (CLAMS; Columbus Instruments, Columbus, Ohio) for 4 days with a free access to food and water. Mice were housed individually at room temperature (22C) under an alternating 12-h light/dark cycle. After one day adaptation, oxygen (VO2) consumption, carbon dioxide (VCO2) production, physical activity, and heat production were measured to determine energy expenditure. Respiratory exchange ratio was calculated as a ratio of […]. […]

[1] = test system: obese mice fed a high fat diet; assay: Glucose tolerance test in mice on RD or HFD (FIG. 7); assay type: in vivo, mouse; details: mice fasted, bolus of glucose, plasma glucose over time

In the case of `CN(CCOc1ccc(CC2SC(=O)NC2=O)cc1)c1ccccn1` (centres unmarked) [Rosiglitazone, rosiglitazone], the “activation of the reporter” value (PPARG) is reported as “about 5 fold”, the “decrease of trabecular bone mass” value (DIO C57BL/6 mice) is reported as 70% and the “bone marrow fat content (osmium staining)” value (DIO C57BL/6 mice; trabecular region of tibia) is reported as “significant fat accumulation in the bone marrow; also recorded: significantly increased fat content in the bone marrow”. The “loss of trabecular bone mass” value (lean C57BL/6 mice) was 30% and the “glucose tolerance / glucose disposal” value [1] was “insulin sensitization effects and improved glucose disposal”.
